In patent US10577365B2, “Derivatives of quinoline as inhibitors of DYRK1A and/or DYRK1B kinases” (Felicitex Therapeutics, Inc., priority 2016, dated 2020):
Where a name gives a salt, the structure may show the parent alone.

Experiments:
DYRK1A = target: T1, DYRK1A (Homo sapiens, UniProt Q13627); experiment: DYRK1A in vitro kinase assay (ADP-Glo); format: biochemical; conditions: ATP 70 μM (Km), substrate 3 μM, enzyme 2 nM or 0.7 nM, 30 min, rt
T1 construct: purchased Carna Bioscence (Carna Biosciences) 04-130
Method: The compounds of the present invention were tested for their inhibitory activity against DYRK1A and DYRK1B kinases once or several times. When tested more than once, the data are reported herein as average value, wherein the average value, also referred to as the mean value, represents the sum of obtained values divided by the number of times tested.
DYRK-inhibitory activity of the compounds of the present invention was tested using the ADP-Glo™ assay as described in the following paragraphs. The procedure for determining the IC50 values with the ADP-Glo™ assay in in vitro kinase assays consists of two parts:
1. Kinase reaction performed under optimized conditions;
2. Detection of ADP as a product of the reaction using ADP-Glo™ system (Promega).
The tested compounds indicated in Table 5 below were dissolved in DMSO, then transferred to the V-bottom PP plate to perform nine serial dilutions (in order to obtain dose-response curves) in 25% DMSO, as indicated in Table 5 below.
The optimized conditions for performing DYRK1A in vitro kinase assay were as follows:
For compound testing, the following protocol was used: two mixes were prepared on ice, Mix 1 containing substrate, ATP and reaction buffer and Mix 2 containing reaction buffer and the kinase. 15 μL per well of Mix 1 was transferred to wells of a 96-well plate. Next, 2.5 μL of the pre-diluted compound to be tested was added to Mix 1, followed by the addition of 12.5 μL of Mix 2. Total reaction volume was 30 μL per well. The experiment was performed in duplicate for each data point being examined. Dose response curve for the positive control was carried out on each assay plate by adding the reference inhibitory compound staurosporine. For each test, three controls were also included: (i) 30 μL of the reaction mixture containing: reaction buffer, ATP, kinase, DMSO without substrate (quasi-positive control); (ii) 30 μL of the reaction mixture containing reaction buffer, substrate, ATP, DMSO without kinase (background control); (iii) 30 μL of the reaction mixture containing reaction buffer, substrate, kinase, ATP, DMSO (vehicle control). Final concentration of DMSO in the reaction was 2%. To detect the ADP amount produced during the kinase reaction, the commercially available kit ADP-Glo™ Kinase Assay (Promega, cat. No # V9103) was used. The protocol used for the detection was based on the Technical Bulletin of the ADP-Glo™ Kinase Assay (Promega) and was adapted to 96-well plate containing 30 μL reaction mixture as explained below.
30 μL of ADP-Glo™ Reagent was added to each well of a 96 well plate containing 30 μL of reaction mixture to terminate the kinase reaction and deplete the remaining ATP. The plate was incubated for 60 minutes on a shaker at rt. 60 μL of Kinase Detection Solution was then added to each well of 96-well plate containing 60 μL of the solution to convert ADP to ATP and to allow the newly synthesized ATP to be measured using a luciferase/luciferin reaction (ratio of kinase reaction volume to ADP Glo™ Reagent volume to Kinase Detection Solution volume was maintained at 1:1:2). The plate was incubated for 40 minutes on a shaker at rt, protected from light. Luminescence was measured in the plate reader, wherein the luminescent signal is proportional to the ADP concentration produced and thus correlates with kinase activity.
After data normalization to controls (complete reaction mix and no-substrate control) and transforming X values (test compound concentrations) using: X=log(X), IC50 values were determined, using the GraphPad Prism 6.0 [log(agonist) vs. normalized response—Variable slope].

DYRK1B = target: T2, DYRK1B (Homo sapiens, UniProt Q9Y463); experiment: DYRK1B in vitro kinase assay (ADP-Glo); format: biochemical; conditions: ADP-Glo assay, ATP 15 μM (Km), substrate 7 μM, enzyme 1 nM or 0.3 nM, 1 h, rt; read-out: DYRK1B IC50
T2 construct: purchased Carna Bioscence (Carna Biosciences) 04-131
Method: The compounds of the present invention were tested for their inhibitory activity against DYRK1A and DYRK1B kinases once or several times. When tested more than once, the data are reported herein as average value, wherein the average value, also referred to as the mean value, represents the sum of obtained values divided by the number of times tested. DYRK-inhibitory activity of the compounds of the present invention was tested using the ADP-Glo™ assay as described in the following paragraphs. The procedure for determining the IC50 values with the ADP-Glo™ assay in in vitro kinase assays consists of two parts: […] Kinase reaction performed under optimized conditions; 2. Detection of ADP as a product of the reaction using ADP-Glo™ system (Promega). The tested compounds indicated in Table 5 below were dissolved in DMSO, then transferred to the V-bottom PP plate to perform nine serial dilutions (in order to obtain dose-response curves) in 25% DMSO, as indicated in Table 5 below. The optimized conditions for performing DYRK1B in vitro kinase assay were as follows: [table] For compound testing, the following protocol was used: two mixes were prepared on ice, Mix 1 containing substrate, ATP and reaction buffer and Mix 2 containing reaction buffer and the kinase. 15 μL per well of Mix 1 was transferred to wells of a 96-well plate. […] Total reaction volume was 30 μL per well. The experiment was performed in duplicate for each data point being examined. Dose response curve for the positive control was carried out on each assay plate by adding the reference inhibitory compound staurosporine. For each test, three controls were also included: (i) 30 μL of the reaction mixture containing: reaction buffer, ATP, kinase, DMSO without substrate (quasi-positive control); (ii) 30 μL of the reaction mixture containing reaction buffer, substrate, ATP, DMSO without kinase (background control); (iii) 30 μL of the reaction mixture containing reaction buffer, substrate, kinase, ATP, DMSO (vehicle control). Final concentration of DMSO in the reaction was 2%. To detect the ADP amount produced during the kinase reaction, the commercially available kit ADP-Glo™ Kinase Assay (Promega, cat. No # V9103) was used. The protocol used for the detection was based on the Technical Bulletin of the ADP-Glo™ Kinase Assay (Promega) and was adapted to 96-well plate containing 30 μL reaction mixture as explained below. 30 μL of ADP-Glo™ Reagent was added to each well of a 96 well plate containing 30 μL of reaction mixture to terminate the kinase reaction and deplete the remaining ATP. The plate was incubated for 60 minutes on a shaker at rt. 60 μL of Kinase Detection Solution was then added to each well of 96-well plate containing 60 μL of the solution to convert ADP to ATP and to allow the newly synthesized ATP to be measured using a luciferase/luciferin reaction (ratio of kinase reaction volume to ADP Glo™ Reagent volume to Kinase Detection Solution volume was maintained at 1:1:2). The plate was incubated for 40 minutes on a shaker at rt, protected from light. Luminescence was measured in the plate reader, wherein the luminescent signal is proportional to the ADP concentration produced and thus correlates with kinase activity. After data normalization to controls (complete reaction mix and no-substrate control) and transforming X values (test compound concentrations) using: X=log(X), IC50 values were determined, using the GraphPad Prism 6.0 [log(agonist) vs. normalized response—Variable slope].

T2 sequence (Q9Y463 whole entry): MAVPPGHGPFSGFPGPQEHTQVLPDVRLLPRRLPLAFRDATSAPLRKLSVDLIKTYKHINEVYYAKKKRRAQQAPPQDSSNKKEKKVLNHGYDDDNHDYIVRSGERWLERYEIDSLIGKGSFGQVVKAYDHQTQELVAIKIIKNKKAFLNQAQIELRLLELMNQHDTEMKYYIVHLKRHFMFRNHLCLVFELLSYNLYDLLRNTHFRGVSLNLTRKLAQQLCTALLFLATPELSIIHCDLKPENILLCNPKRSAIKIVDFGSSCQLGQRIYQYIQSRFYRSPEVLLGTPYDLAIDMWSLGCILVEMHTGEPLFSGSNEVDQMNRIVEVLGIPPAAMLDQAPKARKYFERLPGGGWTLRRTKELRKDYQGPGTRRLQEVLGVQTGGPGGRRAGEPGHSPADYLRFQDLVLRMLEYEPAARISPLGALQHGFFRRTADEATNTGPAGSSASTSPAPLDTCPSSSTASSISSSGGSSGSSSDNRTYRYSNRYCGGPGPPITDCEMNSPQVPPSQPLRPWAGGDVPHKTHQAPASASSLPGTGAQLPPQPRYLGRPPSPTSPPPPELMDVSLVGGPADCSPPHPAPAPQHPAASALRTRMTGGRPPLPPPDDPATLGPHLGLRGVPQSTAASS

Compound | IC50 (DYRK1A) [µM] | IC50 (DYRK1B) [µM]
N[C@@H]1CCCN(c2ccnc3c(F)cc(-c4c[nH]c5ncc(C(=O)NCc6cccnc6)cc45)cc23)C1 [Example 48, 3-{4-[(3R)-3-Aminopiperidin-1-yl]-8-fluoroquinolin-6-yl}-N-(pyridin-3-ylmethyl)-1H-pyrrolo[2,3-b]pyridine-5-carboxamide hydrochloride] | < 0.01 | < 0.01
CNC(=O)c1cnc2[nH]cc(-c3ccc4ncc([N+](=O)[O-])c(N5CCC[C@H](N)C5)c4c3)c2c1 [Example 53, 3-{4-[(3S)-3-Aminopiperidin-1-yl]-3-nitroquinolin-6-yl}-N-methyl-1H-pyrrolo[2,3-b]pyridine-5-carboxamide hydrochloride] | 0.01 to 0.1 | < 0.01
O=C(NCc1ccccc1)c1cnc2[nH]cc(-c3cc(Cl)c4ncccc4c3)c2c1 [Example 32, N-Benzyl-3-(8-chloroquinolin-6-yl)-1H-pyrrolo[2,3-b]pyridine-5-carboxamide] | 0.01 to 0.1 | < 0.01
C=CCN(C)C(=O)c1cnc2[nH]cc(-c3cc(OC)c4ncccc4c3)c2c1 [Example 26, 3-(8-Methoxyquinolin-6-yl)-N-methyl-N-(prop-2-en-1-yl)-1H-pyrrolo[2,3-b]pyridine-5-carboxamide] | > 0.1 | > 0.1
c1cnc2ccc(-c3c[nH]c4ncccc34)cc2c1 [Example 2, 6-{1H-Pyrrolo[2,3-b]pyridin-3-yl}quinoline] | < 0.01 | < 0.01
CNC(=O)c1cnc2[nH]cc(-c3ccc4nccc(N5CCOCC5)c4c3)c2c1 [Example 23, N-Methyl-3-[4-(morpholin-4-yl)quinolin-6-yl]-1H-pyrrolo[2,3-b]pyridine-5-carboxamide] | < 0.01 | < 0.01
CC(=O)N1CCC(Nc2c(N)cnc3ccc(-c4c[nH]c5ncccc45)cc23)CC1 [Example 66, 1-{4-[(3-Amino-6-{1H-pyrrolo[2,3-b]pyridin-3-yl}quinolin-4-yl)amino]piperidin-1-yl}ethan-1-one] | < 0.01 | < 0.01
NCCCNC(=O)c1cnc2[nH]cc(-c3cc(F)c4ncccc4c3)c2c1 [Example 35, N-(3-Aminopropyl)-3-(8-fluoroquinolin-6-yl)-1H-pyrrolo[2,3-b]pyridine-5-carboxamide hydrochloride] | < 0.01 | < 0.01
Fc1cc(-c2c[nH]c3ncccc23)cc2cccnc12 [Example 13, 8-Fluoro-6-{1H-pyrrolo[2,3-b]pyridin-3-yl}quinoline] | < 0.01 | < 0.01
Cc1cc(-c2c[nH]c3ncccc23)cc2c(-c3ccccc3)ccnc12 [Example 17, 8-Methyl-4-phenyl-6-{1H-pyrrolo[2,3-b]pyridin-3-yl}quinoline] | > 0.1 | > 0.1
N[C@@H]1CCCN(c2ccnc3c(F)cc(-c4c[nH]c5ncc(C(=O)NCc6cncnc6)cc45)cc23)C1 [Example 49, 3-{4-[(3R)-3-Aminopiperidin-1-yl]-8-fluoroquinolin-6-yl}-N-(pyrimidin-5-ylmethyl)-1H-pyrrolo[2,3-b]pyridine-5-carboxamide hydrochloride] | < 0.01 | < 0.01
C=CCN(C)C(=O)c1cnc2[nH]cc(-c3ccc4nccc(Cl)c4c3)c2c1 [Example 20, 3-(4-Chloroquinolin-6-yl)-N-methyl-N-(prop-2-en-1-yl)-1H-pyrrolo[2,3-b]pyridine-5-carboxamide] | 0.01 to 0.1 | < 0.01
CNC(=O)c1cnc2[nH]cc(-c3ccc4ncc(NCc5cccc(Cl)c5)c(N5CCC[C@H](N)C5)c4c3)c2c1 [Example 55, 3-{4-[(3S)-3-Aminopiperidin-1-yl]-3-{[(3-chlorophenyl)methyl]amino}quinolin-6-yl}-N-methyl-1H-pyrrolo[2,3-b]pyridine-5-carboxamide hydrochloride] | 0.01 to 0.1 | < 0.01
CNC(=O)c1cnc2[nH]cc(-c3cc(F)c4nccc(N5CCC[C@@H](N)C5)c4c3)c2c1 [Example 41, 3-{4-[(3R)-3-Aminopiperidin-1-yl]-8-fluoroquinolin-6-yl}-N-methyl-1H-pyrrolo[2,3-b]pyridine-5-carboxamide hydrochloride] | < 0.01 | < 0.01
CNC(=O)c1cnc2[nH]cc(-c3ccc4nccc(-c5cccnc5)c4c3)c2c1 [Example 22, N-Methyl-3-[4-(pyridin-3-yl)quinolin-6-yl]-1H-pyrrolo[2,3-b]pyridine-5-carboxamide] | < 0.01 | < 0.01
C=CC1CN2CCC1CC2[C@H](O)c1ccnc2ccc(-c3c[nH]c4ncccc34)cc12 (stereo in doubt) [Example 9, {5-Ethenyl-1-azabicyclo[2.2.2]octan-2-yl}(6-{1H-pyrrolo[2,3-b]pyridin-3-yl}quinolin-4-yl)methanol] | < 0.01 | < 0.01
Fc1cc(-c2c[nH]c3ncc(CNCc4ccccc4)cc23)cc2c(-c3cccnc3)ccnc12 [Example 50, Benzyl({3-[8-fluoro-4-(pyridin-3-yl)quinolin-6-yl]-1H-pyrrolo[2,3-b]pyridin-5-yl}methyl)amine] | < 0.01 | < 0.01
Clc1cc(-c2c[nH]c3ncccc23)cc2cccnc12 [Example 11, 8-Chloro-6-{1H-pyrrolo[2,3-b]pyridin-3-yl}quinoline hydrochloride] | < 0.01 | < 0.01
